For series [1], the system named is Liver microsome. In words: Intrinsic clearance in human pooled liver microsomes at 1 uM by LC/MS analysis. It counts as ADME.
Series [2] has as its target T1, Neuropeptide Y receptor type 5 (Homo sapiens, UniProt Q15761).
T1 sequence (Q15761 whole entry): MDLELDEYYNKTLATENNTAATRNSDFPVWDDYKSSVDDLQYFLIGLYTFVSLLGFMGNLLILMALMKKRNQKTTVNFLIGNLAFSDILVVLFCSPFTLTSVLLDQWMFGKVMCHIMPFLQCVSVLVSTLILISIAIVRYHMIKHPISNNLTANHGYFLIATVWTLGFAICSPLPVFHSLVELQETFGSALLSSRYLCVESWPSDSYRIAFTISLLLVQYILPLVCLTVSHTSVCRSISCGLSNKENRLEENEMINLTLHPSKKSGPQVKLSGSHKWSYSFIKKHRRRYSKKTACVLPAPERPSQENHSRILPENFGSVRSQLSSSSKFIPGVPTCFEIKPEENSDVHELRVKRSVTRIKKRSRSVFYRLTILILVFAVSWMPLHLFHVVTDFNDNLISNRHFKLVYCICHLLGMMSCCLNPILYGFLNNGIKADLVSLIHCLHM
As to the kind of experiment: Displacement of [125I]PYY from human NPY5 receptor transfected in LM(tk-) cell membranes after 120 mins by solid scintillation counting.

In series [3] the test system is Liver microsome. In words: Intrinsic clearance in rat pooled liver microsomes at 1 uM by LC/MS analysis. Type of series: ADME.
Series [4] can be described thus: Drug uptake in femoral artery cannulated Sprague-Dawley rat brain at 10 mg/kg, po after 1 hr by LC/MS/MS analysis. Type of series: ADME, organism-based. Details: dose 10 mg/kg, route oral. Conditions: read-out: Drug uptake.
A short description of series [5]: Ratio of drug level in brain to plasma in femoral artery cannulated Sprague-Dawley rat at 10 mg/kg, po after 1 hr by LC/MS/MS analysis. Type of series: ADME, organism-based. Details: dose 10 mg/kg, route oral. Conditions: read-out: BPR.
The nature of series [6]: Clearance in Sprague-Dawley rat at 1 mg/kg, iv and 2 mg/kg, po by LC/MS analysis. Type of series: ADME, organism-based. Conditions: in vivo.
The nature of series [7]: Plasma concentration in femoral artery cannulated Sprague-Dawley rat at 10 mg/kg, po after 1 hr by LC/MS/MS analysis. Type of series: ADME, organism-based. Details: dose 10 mg/kg, route oral.
Series [8] is described as follows: Oral bioavailability in Sprague-Dawley rat at 2 mg/kg by LC/MS analysis. Type of series: ADME, organism-based. The conditions noted are these: in vivo.
Series [9] in a line: Half life in Sprague-Dawley rat at 1 mg/kg, iv and 2 mg/kg, po by LC/MS analysis. It counts as ADME, organism-based. Conditions: in vivo.
The nature of series [10]: Volume of distribution at steady state in Sprague-Dawley rat at 1 mg/kg, iv and 2 mg/kg, po by LC/MS analysis. It counts as ADME, organism-based. Conditions: in vivo, read-out: Vdss.
Series [11] in a line: Solubility of the compound at pH 7.4 by classic shake flask method. The conditions noted are these: buffer. Type of series: physicochemical.
A further series relates to Rattus norvegicus. As to the kind of experiment: AUC (0 to infinity) in Sprague-Dawley rat at 2 mg/kg, po by LC/MS analysis. It counts as ADME, organism-based, Plasma. More on the design: time infinity, dose 2 mg/kg, route oral. Conditions: in vivo.

Converted amounts (≈) assume the structure as drawn. Some results are limits rather than exact numbers.

As to `C[C@@H]1CN([C@H]2CC[C@@H](C(=O)Nc3ccc(-c4cc(F)cc(F)c4)cn3)CC2)C(=O)O1`, the CLH came out at 0.9 L/min with Liver microsome [1] and 7 mL/min in the series on Liver microsome [3]. Besides, affinity in series [2] was put at a Ki of 3 nM.

As for `O=C1CCCN1[C@H]1CC[C@@H](C(=O)Nc2ccc(-c3cc(F)cc(F)c3)cn2)CC1`, the concentration at 1 h in series [4] and in series [7] was 2800 nM throughout. Also, the Kp at 1 h in series [5] is 1. The CLH in the series with Liver microsome [1] turned out to be 1 L/min; with Liver microsome [3], 12 mL/min. The clearance in series [6] was 8.67 mL/min/kg. Also, in series [8], the bioavailability came out at 110%. This molecule showed a half-life in series [9] of 4.4 h. Also, the Ki in series [2] was found to be 8 nM. Also, the Vd in series [10] turned out to be 3.2 L/kg. The molecule also displayed a solubility (thermodynamic) in [11] of 0.7 µg/mL (≈ 1.75 µM). The molecule further returned an AUC with Rattus norvegicus of 4300 ng·h/mL.

As for `CN1CCN([C@H]2CC[C@@H](C(=O)Nc3ccc(-c4cc(F)cc(F)c4)cn3)CC2)C1=O`, the concentration at 1 h turned out to be 3100 nM in series [4] and 5000 nM in series [7]. In addition, the Kp at 1 h in series [5] was found to be 0.6. In addition, the CLH worked out at 0.8 L/min in the series with Liver microsome [1] and 8.8 mL/min in the series with Liver microsome [3]. The molecule also gave a clearance in [6] of 9.5 mL/min/kg. Moreover, the bioavailability in [8] turned out to be 110%. In series [9], this molecule showed a half-life of 3.5 h. This molecule also had a Ki in series [2] of 5 nM. In addition, the Vd in series [10] turned out to be 2.8 L/kg. The molecule further returned a solubility (thermodynamic) in series [11] of 1.1 µg/mL (≈ 2.65 µM). This molecule showed an AUC in the series with Rattus norvegicus of 4100 ng·h/mL.

As to `O=C1CCCN1[C@H]1CC[C@@H](C(=O)Nc2ncc(-c3cc(F)cc(F)c3)cn2)CC1`, the concentration at 1 h in series [4] worked out at 380 nM; in [7] it was 2800 nM. Moreover, in series [5], the Kp at 1 h was 0.14. The CLH with Liver microsome [1] came to 0.7 L/min; in the series with Liver microsome [3], 31 mL/min. This molecule gave a Ki in series [2] of 5 nM. Also, the solubility (thermodynamic) in [11] amounted to 38 µg/mL (≈ 94.9 µM).

With `O=C1CCCN1[C@H]1CC[C@@H](C(=O)Nc2cnc(-c3cc(F)cc(F)c3)cn2)CC1`, the CLH was 0.9 L/min with Liver microsome [1] and 9.5 mL/min in the series with Liver microsome [3]. Besides, in [2], the Ki turned out to be 6 nM.

As to `CC(C)N1CCN([C@H]2CC[C@@H](C(=O)Nc3ccc(-c4cc(F)cc(F)c4)cn3)CC2)C1=O`, the Ki in series [2] was determined as 41 nM.

`O=C1NCCCN1[C@H]1CC[C@@H](C(=O)Nc2ccc(-c3cc(F)cc(F)c3)cn2)CC1`: the CLH with Liver microsome [1] turned out to be 1.1 L/min; in the series with Liver microsome [3] it was 18 mL/min. In [11], the thermodynamic solubility came out at 1.3 µg/mL (≈ 3.14 µM).

For `O=C1NCCN1[C@H]1CC[C@@H](C(=O)Nc2ccc(-c3cc(F)cc(F)c3)cn2)CC1`, the concentration at 1 h is 1400 nM in [4] and 6800 nM in series [7]. For the same molecule, the Kp at 1 h in [5] was determined as 0.2. The CLH in the series on Liver microsome [1] was determined as 1.7 L/min; in the series on Liver microsome [3], 37 mL/min. Further, the Ki in series [2] was 5 nM. The thermodynamic solubility in series [11] was 4.5 µg/mL (≈ 11.2 µM).

Regarding `C[C@H]1CN([C@H]2CC[C@@H](C(=O)Nc3ccc(-c4cc(F)cc(F)c4)cn3)CC2)C(=O)O1`, the CLH in the series with Liver microsome [1] worked out at 1.1 L/min; in the series on Liver microsome [3], 15 mL/min. The same molecule showed a Ki in [2] of 7 nM.

For `CC(C)(C)C1CN([C@H]2CC[C@@H](C(=O)Nc3ccc(-c4cc(F)cc(F)c4)cn3)CC2)C(=O)O1` (mixture of isomers), the CLH in the series on Liver microsome [1] was determined as 3.9 L/min; in the series on Liver microsome [3], 25 mL/min. In series [2], this molecule registered an inhibition constant (Ki) of 4 nM.

Turning to `O=C1OCCN1[C@H]1CC[C@@H](C(=O)Nc2ccc(-c3cc(F)cc(F)c3)cn2)CC1`, the concentration at 1 h in [4] amounted to 1500 nM; in [7] it was 3000 nM. In addition, in series [5], the Kp at 1 h came out at 0.5. In addition, the CLH with Liver microsome [1] is 0.4 L/min; in the series with Liver microsome [3], 9.5 mL/min. The clearance in [6] was 14.2 mL/min/kg. The bioavailability in [8] was 83%. Further, the half-life in [9] is 2.8 h. Moreover, the Vd in series [10] was 3.4 L/kg. Besides, the thermodynamic solubility in series [11] is 4 µg/mL (≈ 9.96 µM). The AUC in the series on Rattus norvegicus came to 2000 ng·h/mL.

In the case of `O=C1N(C2CC2)CCN1[C@H]1CC[C@@H](C(=O)Nc2ccc(-c3cc(F)cc(F)c3)cn2)CC1`, the values for the CLH in the series with Liver microsome [1] and in the series with Liver microsome [3] were 1 L/min and 8.4 mL/min, respectively. This molecule had a Ki in series [2] of 9 nM.

Regarding `CN(c1ccc(-c2cc(F)cc(F)c2)cn1)C(=O)[C@H]1CC[C@@H](N2CCCC2=O)CC1`, the Ki in series [2] is > 10000 nM.

As for `O=C1CCCCN1[C@H]1CC[C@@H](C(=O)Nc2ccc(-c3cc(F)cc(F)c3)cn2)CC1`, in series [2], the affinity, expressed as Ki, was 2 nM.

Regarding `CCN1CCN([C@H]2CC[C@@H](C(=O)Nc3ccc(-c4cc(F)cc(F)c4)cn3)CC2)C1=O`, the CLH in the series with Liver microsome [1] was 1.6 L/min; in the series on Liver microsome [3], 17 mL/min. In addition, the Ki in [2] came out at 10 nM. The molecule also yielded a thermodynamic solubility in series [11] of 1.6 µg/mL (≈ 3.73 µM).

For `CN1CCCN([C@H]2CC[C@@H](C(=O)Nc3ccc(-c4cc(F)cc(F)c4)cn3)CC2)C1=O`, the CLH in the series on Liver microsome [1] turned out to be 1.1 L/min; in the series with Liver microsome [3], 19 mL/min. Moreover, in [11], the solubility (thermodynamic) was found to be 5.4 µg/mL (≈ 12.6 µM).

(Values after ChEMBL document CHEMBL3124873, “cis-1-Oxo-heterocyclyl-4-amido cyclohexane derivatives as NPY5 receptor antagonists” (Bioorg Med Chem Lett, 2014).)
